Measured values taken from PubChem BioAssay (NCI).
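How tested: cells in 96-well plates exposed to compound for 48 hours at five concentrations. Here, GI50 denotes the concentration required for 50% inhibition of growth. Definition used: TGI = concentration required for complete inhibition of growth.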

Key:
Assay in all cases: NCI anticancer screen, dose series, 48 h
SF-268 CNS = tested on: SF-268 CNS
NCI/ADR-RES ovarian = tested on: NCI/ADR-RES ovarian
EKVX NSCLC = tested on: EKVX NSCLC
DU-145 prostate = tested on: DU-145 prostate
RXF 393 renal = tested on: RXF 393 renal
PC-3 prostate = tested on: PC-3 prostate
CAKI-1 renal = tested on: CAKI-1 renal
A498 renal = tested on: A498 renal
UACC-257 melanoma = tested on: UACC-257 melanoma
MDA-MB-435 = tested on: MDA-MB-435
SF-295 CNS = tested on: SF-295 CNS
SK-MEL-2 melanoma = tested on: SK-MEL-2 melanoma
HCT-15 colon = tested on: HCT-15 colon
SK-MEL-28 melanoma = tested on: SK-MEL-28 melanoma
HOP-92 NSCLC = tested on: HOP-92 NSCLC
UO-31 renal = tested on: UO-31 renal
HS 578T breast = tested on: HS 578T breast
ACHN renal = tested on: ACHN renal
HL-60(TB) leukemia = tested on: HL-60(TB) leukemia
NCI-H522 lung = tested on: NCI-H522 lung
COLO 205 colon = tested on: COLO 205 colon
SNB-19 CNS = tested on: SNB-19 CNS
MALME-3M melanoma = tested on: MALME-3M melanoma
HCC-2998 colon = tested on: HCC-2998 colon
786-0 renal = tested on: 786-0 renal
HCT-116 colon = tested on: HCT-116 colon
HOP-62 NSCLC = tested on: HOP-62 NSCLC
NCI-H23 lung = tested on: NCI-H23 lung
CCRF-CEM leukemia = tested on: CCRF-CEM leukemia
HT29 colon = tested on: HT29 colon
KM12 colon = tested on: KM12 colon
RPMI-8226 leukemia = tested on: RPMI-8226 leukemia
OVCAR-3 ovarian = tested on: OVCAR-3 ovarian
MOLT-4 leukemia = tested on: MOLT-4 leukemia
T-47D breast = tested on: T-47D breast
SW-620 colon = tested on: SW-620 colon
M14 melanoma = tested on: M14 melanoma
SNB-75 CNS = tested on: SNB-75 CNS
MDA-MB-231 breast = tested on: MDA-MB-231 breast
OVCAR-4 ovarian = tested on: OVCAR-4 ovarian
MCF7 breast = tested on: MCF7 breast
OVCAR-5 ovarian = tested on: OVCAR-5 ovarian
TK-10 renal = tested on: TK-10 renal
K-562 leukemia = tested on: K-562 leukemia
OVCAR-8 ovarian = tested on: OVCAR-8 ovarian
UACC-62 melanoma = tested on: UACC-62 melanoma
SK-OV-3 ovarian = tested on: SK-OV-3 ovarian
A549 NSCLC = tested on: A549 NSCLC
SK-MEL-5 melanoma = tested on: SK-MEL-5 melanoma
U251 CNS = tested on: U251 CNS
SF-539 CNS = tested on: SF-539 CNS
NCI-H460 lung = tested on: NCI-H460 lung
IGROV1 ovarian = tested on: IGROV1 ovarian
SN12C renal = tested on: SN12C renal
LOX IMVI melanoma = tested on: LOX IMVI melanoma

O=C(C[n+]1ccn(CC(OCc2ccc(Cl)cc2Cl)c2ccc(Cl)cc2Cl)c1)c1ccc(F)cc1 (configuration not stated)
GI50 (SF-268 CNS): 1.44 µM
TGI (SF-268 CNS): 3.09 µM
GI50 (NCI/ADR-RES ovarian): 16.5 µM
TGI (NCI/ADR-RES ovarian): 57.5 µM
GI50 (EKVX NSCLC): 1.11 µM
TGI (EKVX NSCLC): 2.4 µM
GI50 (DU-145 prostate): 1.66 µM
TGI (DU-145 prostate): 3.09 µM
GI50 (RXF 393 renal): 1.81 µM
TGI (RXF 393 renal): 3.31 µM
GI50 (PC-3 prostate): 1.55 µM
TGI (PC-3 prostate): 2.91 µM
GI50 (CAKI-1 renal): 2.05 µM
TGI (CAKI-1 renal): 18.3 µM
GI50 (A498 renal): 1.42 µM
TGI (A498 renal): 3.36 µM
GI50 (UACC-257 melanoma): 1.43 µM
TGI (UACC-257 melanoma): 2.8 µM
GI50 (MDA-MB-435): 1.31 µM
TGI (MDA-MB-435): 2.72 µM
GI50 (SF-295 CNS): 1.63 µM
TGI (SF-295 CNS): 3.19 µM
GI50 (SK-MEL-2 melanoma): 1650 nM
TGI (SK-MEL-2 melanoma): 3.11 µM
GI50 (HCT-15 colon): 4.65 µM
TGI (HCT-15 colon): 67.6 µM
GI50 (SK-MEL-28 melanoma): 1.7 µM
TGI (SK-MEL-28 melanoma): 3.12 µM
GI50 (HOP-92 NSCLC): 1.27 µM
TGI (HOP-92 NSCLC): 2.84 µM
GI50 (UO-31 renal): 2.43 µM
TGI (UO-31 renal): 17 µM
GI50 (HS 578T breast): 1.6 µM
TGI (HS 578T breast): 3.72 µM

CCN(CC)CCOc1ccccc1-n1c(C)ccc1-c1ccccc1
GI50 (SF-268 CNS): 15.6 µM
TGI (SF-268 CNS): 30.6 µM
GI50 (ACHN renal): 15.5 µM
TGI (ACHN renal): 30.3 µM
GI50 (NCI/ADR-RES ovarian): 13.9 µM
TGI (NCI/ADR-RES ovarian): 29.9 µM
GI50 (HL-60(TB) leukemia): 20.5 µM
TGI (HL-60(TB) leukemia): 40.6 µM
GI50 (NCI-H522 lung): 11.6 µM
TGI (NCI-H522 lung): 28.3 µM
GI50 (COLO 205 colon): 9.9 µM
TGI (COLO 205 colon): 22.5 µM
GI50 (EKVX NSCLC): 15.8 µM
TGI (EKVX NSCLC): 33.6 µM
GI50 (SNB-19 CNS): 15.7 µM
TGI (SNB-19 CNS): 31.9 µM
GI50 (DU-145 prostate): 17.3 µM
TGI (DU-145 prostate): 32.3 µM
GI50 (MALME-3M melanoma): 19.2 µM
TGI (MALME-3M melanoma): 36.6 µM
GI50 (HCC-2998 colon): 13.9 µM
TGI (HCC-2998 colon): 28.5 µM
GI50 (786-0 renal): 17.1 µM
TGI (786-0 renal): 31.8 µM
GI50 (RXF 393 renal): 5.31 µM
TGI (RXF 393 renal): 20.1 µM
GI50 (HCT-116 colon): 12 µM
TGI (HCT-116 colon): 25.8 µM
GI50 (PC-3 prostate): 12.4 µM
TGI (PC-3 prostate): 29.2 µM
GI50 (HOP-62 NSCLC): 17 µM
TGI (HOP-62 NSCLC): 31.1 µM
GI50 (NCI-H23 lung): 14.2 µM
TGI (NCI-H23 lung): 29.9 µM
GI50 (CCRF-CEM leukemia): 18.7 µM
TGI (CCRF-CEM leukemia): 48.6 µM
GI50 (HT29 colon): 6.22 µM
TGI (HT29 colon): 20.8 µM
GI50 (KM12 colon): 17.2 µM
TGI (KM12 colon): 32.5 µM
GI50 (RPMI-8226 leukemia): 22.9 µM
TGI (RPMI-8226 leukemia): 68.7 µM
GI50 (OVCAR-3 ovarian): 15.6 µM
TGI (OVCAR-3 ovarian): 30.1 µM
GI50 (CAKI-1 renal): 13.6 µM
TGI (CAKI-1 renal): 28 µM
GI50 (MOLT-4 leukemia): 13.9 µM
TGI (MOLT-4 leukemia): 33.3 µM
GI50 (T-47D breast): 15.7 µM
TGI (T-47D breast): 34.7 µM
GI50 (SW-620 colon): 15.2 µM
TGI (SW-620 colon): 31.8 µM
GI50 (M14 melanoma): 17 µM
TGI (M14 melanoma): 34.2 µM
GI50 (SNB-75 CNS): 10.3 µM
TGI (SNB-75 CNS): 22.4 µM
GI50 (MDA-MB-231 breast): 6.54 µM
TGI (MDA-MB-231 breast): 20.7 µM
GI50 (A498 renal): 14.5 µM
TGI (A498 renal): 32 µM
GI50 (OVCAR-4 ovarian): 12.2 µM
TGI (OVCAR-4 ovarian): 25.7 µM
GI50 (UACC-257 melanoma): 16.2 µM
TGI (UACC-257 melanoma): 31.8 µM
GI50 (MDA-MB-435): 14.4 µM
TGI (MDA-MB-435): 29.9 µM
GI50 (MCF7 breast): 13 µM
TGI (MCF7 breast): 26.7 µM
GI50 (OVCAR-5 ovarian): 15.7 µM
TGI (OVCAR-5 ovarian): 30.1 µM
GI50 (SF-295 CNS): 16.3 µM
TGI (SF-295 CNS): 34.2 µM
GI50 (TK-10 renal): 14.5 µM
TGI (TK-10 renal): 29.2 µM
GI50 (K-562 leukemia): 10.7 µM
TGI (K-562 leukemia): 32 µM
GI50 (HCT-15 colon): 12.6 µM
TGI (HCT-15 colon): 28.2 µM
GI50 (OVCAR-8 ovarian): 16.7 µM
TGI (OVCAR-8 ovarian): 33.4 µM
GI50 (UACC-62 melanoma): 15.8 µM
TGI (UACC-62 melanoma): 30.6 µM
GI50 (SK-OV-3 ovarian): 17.3 µM
TGI (SK-OV-3 ovarian): 31.4 µM
GI50 (A549 NSCLC): 16.3 µM
TGI (A549 NSCLC): 32.1 µM
GI50 (SK-MEL-28 melanoma): 15.7 µM
TGI (SK-MEL-28 melanoma): 29.7 µM
GI50 (SK-MEL-5 melanoma): 12.8 µM
TGI (SK-MEL-5 melanoma): 25.9 µM
GI50 (U251 CNS): 13.4 µM
TGI (U251 CNS): 27.4 µM
GI50 (HOP-92 NSCLC): 12.6 µM
TGI (HOP-92 NSCLC): 32.8 µM
GI50 (SF-539 CNS): 16.1 µM
TGI (SF-539 CNS): 31 µM
GI50 (UO-31 renal): 10.5 µM
TGI (UO-31 renal): 24.4 µM
GI50 (HS 578T breast): 12.8 µM
TGI (HS 578T breast): 35.9 µM
GI50 (NCI-H460 lung): 18.2 µM
TGI (NCI-H460 lung): 38 µM
GI50 (IGROV1 ovarian): 14.8 µM
TGI (IGROV1 ovarian): 31.8 µM
GI50 (SN12C renal): 15.4 µM
TGI (SN12C renal): 30.5 µM
GI50 (LOX IMVI melanoma): 17.5 µM
TGI (LOX IMVI melanoma): 34.5 µM
